ChEMBL document CHEMBL1201862, “PubChem BioAssay data set” (2004)
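Following 48 hours of exposure in 96-well plates, responses at five concentrations were used to interpolate endpoints linearly. The concentration for 50% growth inhibition is given as GI50.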 Calls of active or inactive are those of the source. No stated cut-off is given here; in the data, active = GI50 up to about 1.1 µM and inactive = higher.

Columns and labels:
Assay in all cases: NCI anticancer screen, dose series, 48 h
[1] = system: IGROV-1
[2] = system: EKVX
[3] = system: M14
[4] = system: OVCAR-8
[5] = system: SK-MEL-5
[6] = system: UACC-257
[7] = system: OVCAR-3
[8] = system: SK-MEL-28
[9] = system: Malme-3M
[10] = system: HCC 2998
[11] = system: SF-268
[12] = system: KM12
[13] = system: HCT-15
[14] = system: NCI-H226
[15] = system: SN12C
[16] = system: RPMI-8226
[17] = system: SNB-19
[18] = system: A549
[19] = system: UACC-62
[20] = system: NCI-H522

## Cc1ccc([N+](=O)[O-])cc1S(=O)(=O)Nc1ccc(C2=NNC(c3ccccc3O)C2)cc1 (stereo not given)
[1]
  GI50: 40.7 µM (inactive)
[2]
  GI50: 20.9 µM (inactive)
[3]
  GI50: 20.7 µM (inactive)
[4]
  GI50: 56 µM (inactive)
[5]
  GI50: 19.2 µM (inactive)
[6]
  GI50: 25.9 µM (inactive)
[7]
  GI50: 13.5 µM (inactive)
[8]
  GI50: 26.9 µM (inactive)
[9]
  GI50: 25.9 µM (inactive)
[10]
  GI50: 34.7 µM (inactive)
[11]
  GI50: 32.1 µM (inactive)
[12]
  GI50: 21.6 µM (inactive)
[13]
  GI50: 21.2 µM
[14]
  GI50: 48.3 µM (inactive)
[15]
  GI50: 23.9 µM (inactive)
[16]
  GI50: 26.2 µM (inactive)
[17]
  GI50: 33.8 µM (inactive)
[18]
  GI50: 24.9 µM (inactive)
[19]
  GI50: 17.6 µM (inactive)
[20]
  GI50: 23.3 µM (inactive)
